Reference: ChEMBL document CHEMBL1136554, “p38 Inhibitors: piperidine- and 4-aminopiperidine-substituted naphthyridinones, quinolinones, and dihydroquinazolinones” (Bioorg Med Chem Lett, 2003)

Tests used:
MAP kinase p38 [1] = biological target: T1, MAP kinase p38 (Homo sapiens, UniProt O15264+Q15759+Q16539+P53778); test: Inhibition of p38 MAP kinase; format: protein assay
MAP kinase p38 [2] = biological target: T1, MAP kinase p38; test: Inhibition of p38 kinase related TNF-alpha release; format: functional
[3] = Oral bioavailability in rat; format: ADME, organism-based; conditions: in vivo
[4] = Plasma clearance measured in rat; format: ADME, organism-based; conditions: read-out: Clp

SMILES	IC50 (MAP kinase p38 [1])	IC50 (MAP kinase p38 [2])	bioavailability [3]	clearance [4]
CC(C)N1CCC(Nc2cc(-c3ccccc3Cl)c3c(c2)N(c2c(Cl)cccc2Cl)C(=O)NC3)CC1	1.6 nM	31 nM	–	–
CN1C2CCC1CC(Nc1cc(-c3ccccc3Cl)c3c(c1)N(c1c(Cl)cccc1Cl)C(=O)NC3)C2 (configuration not stated)	0.4 nM	20 nM	–	–
CC(C)N1CCC(c2cc(-c3ccc(F)cc3Cl)c3c(c2)N(c2c(Cl)cccc2Cl)C(=O)CC3)CC1	0.8 nM	24 nM	10%	70 mL/min/kg
CC(C)N1CCC(c2cc(-c3ccccc3Cl)c3ccc(=O)n(-c4c(Cl)cccc4Cl)c3c2)CC1	0.2 nM	5.5 nM	17%	39 mL/min/kg
CC1(C)CC(Nc2cc(-c3ccccc3Cl)c3c(c2)N(c2c(Cl)cccc2Cl)C(=O)NC3)CC(C)(C)N1	3.7 nM	200 nM	–	–

Other lines, results leading:

IC50 (MAP kinase p38 [1])	IC50 (MAP kinase p38 [2])	bioavailability [3]	clearance [4]	SMILES
1.1 nM	51 nM	–	–	CC(C)N1CCC(Nc2cc3c(ccc(=O)n3-c3c(Cl)cccc3Cl)c(-c3ccccc3Cl)n2)CC1
0.4 nM	24 nM	8.5%	38 mL/min/kg	CN1C2CCC1CC(Nc1cc3c(ccc(=O)n3-c3c(Cl)cccc3Cl)c(-c3ccccc3Cl)n1)C2 (configuration not stated)
0.8 nM	10 nM	5.9%	9.4 mL/min/kg	CC1(C)CC(Nc2cc3c(ccc(=O)n3-c3c(Cl)cccc3Cl)c(-c3ccccc3Cl)n2)CC(C)(C)N1
1.3 nM	4.9 nM	32%	51 mL/min/kg	CC(C)N1CCC(c2cc3c(ccc(=O)n3-c3c(Cl)cccc3Cl)c(-c3ccccc3Cl)n2)CC1
0.2 nM	18 nM	–	–	O=c1ccc2c(-c3ccccc3Cl)nc(NC3CCNCC3)cc2n1-c1c(Cl)cccc1Cl
1.1 nM	13 nM	–	–	CN1C(C)(C)CC(Nc2cc3c(ccc(=O)n3-c3c(Cl)cccc3Cl)c(-c3ccccc3Cl)n2)CC1(C)C
